Measurements: the CheMixHub ionic liquid set

Experiment: xn = mol fraction of the nth substance listed

CN(C)CCO + CCCC[n+]1ccn(C)c1.F[P-](F)(F)(F)(F)F
101 kPa
Conditions | electrical conductivity [S/m] | viscosity [mPa·s]
288.15 K, x1 = 0.3182 | 0.1534 | 120
288.15 K, x1 = 0.3764 | 0.1645 | –
288.15 K, x1 = 0.5166 | 0.1918 | 63
288.15 K, x1 = 0.709 | 0.211 | 29
288.15 K, x1 = 0.8063 | 0.1998 | 18
293.15 K, x1 = 0.2143 | 0.187 | 117
293.15 K, x1 = 0.4405 | – | 61
293.15 K, x1 = 0.4637 | 0.237 | –
293.15 K, x1 = 0.5166 | 0.25 | 48
293.15 K, x1 = 0.8063 | 0.245 | 14.6
298.15 K, x1 = 0.1221 | 0.211 | 117
298.15 K, x1 = 0.4637 | 0.308 | –
298.15 K, x1 = 0.9128 | 0.1874 | 6.7
298.15 K, x1 = 1 | – | 3.8
303.15 K, x1 = 0.3764 | 0.369 | –
303.15 K, x1 = 0.4405 | – | 36
303.15 K, x1 = 0.8063 | 0.355 | 9.7
308.15 K, x1 = 0.4405 | – | 28
308.15 K, x1 = 0.4637 | 0.483 | –
313.15 K, x1 = 0.605 | 0.611 | 14
318.15 K, x1 = 0.3764 | 0.679 | –
323.15 K, x1 = 0.3764 | 0.792 | –
323.15 K, x1 = 0.5166 | 0.849 | 12.7
323.15 K, x1 = 1 | – | 2.04

CC[n+]1ccn(CCOC)c1.N#C[S-] + CC(C)O
viscosity [mPa·s], 100 kPa
Conditions | x1 = 0.1 | x1 = 0.1998 | x1 = 0.3234 | x1 = 0.3998 | x1 = 0.5003 | x1 = 0.6 | x1 = 0.697 | x1 = 0.8002 | x1 = 0.8991 | x1 = 1
288.15 K | 4.25 | 6.2 | 10.24 | 15.05 | 19.9 | 28.1 | 38.6 | 54.1 | 72.5 | 93.1
293.15 K | 3.66 | 5.32 | 8.77 | 12.96 | 16.8 | 23 | 31.1 | 42.7 | 56.8 | 70.8
298.15 K | 3.18 | 4.62 | 7.6 | 11.21 | 14.12 | 19.3 | 25.7 | 34.4 | 45 | 55.8
303.15 K | 2.79 | 4.05 | 6.64 | 9.42 | 11.99 | 16.48 | 21.6 | 28.2 | 36.3 | 44.3
308.15 K | 2.45 | 3.58 | 5.82 | 8.25 | 10.28 | 14.1 | 18.7 | 23.5 | 29.9 | 36
313.15 K | 2.17 | 3.18 | 5.17 | 7.23 | 8.91 | 12.18 | 15.97 | 19.8 | 24.9 | 29.7
318.15 K | 1.93 | 2.84 | 4.6 | 6.27 | 7.78 | 10.62 | 13.55 | 17.18 | 21.1 | 24.9

CCCC[N+](CCCC)(CCCC)CCCC.O=S(=O)([O-])O + Cc1ncc(C[n+]2csc(CCO)c2C)c(N)n1.Cl.[Cl-] + O
viscosity [mPa·s], 101 kPa
Conditions | 298.15 K | 308.15 K | 318.15 K
x2 = 0.0003644, x1 = 0.0003601 | 0.9075 | 0.7352 | 0.6088
x2 = 0.0003645, x1 = 9.006e-05 | 0.9037 | 0.7314 | 0.605
x2 = 0.000365, x1 = 0.0001801 | 0.905 | 0.7327 | 0.6062
x2 = 0.0003656, x1 = 0.0002701 | 0.9062 | 0.7339 | 0.6075
x2 = 0.0006576, x1 = 0.0001801 | 0.9165 | 0.7418 | 0.6142
x2 = 0.0006584, x1 = 9.003e-05 | 0.9153 | 0.7406 | 0.6129
x2 = 0.0006587, x1 = 0.00027 | 0.918 | 0.7431 | 0.615
x2 = 0.0006597, x1 = 0.00036 | 0.919 | 0.7443 | 0.6167
x2 = 0.0009539, x1 = 9.001e-05 | 0.9257 | 0.7497 | 0.6208
x2 = 0.0009554, x1 = 0.00018 | 0.93 | 0.751 | 0.62
x2 = 0.0009567, x1 = 0.0003599 | 0.9295 | 0.7535 | 0.6246
x2 = 0.0009569, x1 = 0.00027 | 0.9283 | 0.7522 | 0.6234
x2 = 0.001253, x1 = 8.998e-05 | 0.9373 | 0.7589 | 0.6288
x2 = 0.001255, x1 = 0.0001799 | 0.9386 | 0.7602 | 0.63
x2 = 0.001255, x1 = 0.0002699 | 0.9398 | 0.7614 | 0.6313
x2 = 0.001257, x1 = 0.0003598 | 0.9411 | 0.7626 | 0.6326
x2 = 0.001555, x1 = 8.995e-05 | 0.9478 | 0.7692 | 0.6355
x2 = 0.001556, x1 = 0.0001799 | 0.9491 | 0.7705 | 0.6368
x2 = 0.001558, x1 = 0.0002698 | 0.95 | 0.7717 | 0.64
x2 = 0.001561, x1 = 0.0003597 | 0.9516 | 0.773 | 0.6393
x2 = 0.001859, x1 = 8.992e-05 | 0.9569 | 0.7784 | 0.6425
x2 = 0.00186, x1 = 0.0001798 | 0.9582 | 0.7797 | 0.6438
x2 = 0.001863, x1 = 0.0002697 | 0.9594 | 0.7809 | 0.6451
x2 = 0.001866, x1 = 0.0003596 | 0.9607 | 0.7822 | 0.6464
